Data published in US10633348B2, “Methods to treat lymphoplasmacytic lymphoma” (Dana-Farber Cancer Institute, Inc., priority 2013, dated 2020).
Like-named read-outs stand apart in the source and are kept apart here.

Columns and labels:
Type in all cases: cell-based
[1] = system: AGK
[2] = system: AMPKa1, AMPKa2; assay: KiNativ kinase profiling in A375 cells; conditions: Lys2, SEQ ID NO 4, 1.0 μM
[3] = system: ARAF
[4] = system: BRAF
[5] = system: CAMK2G
[6] = system: CDC2
[7] = system: DNAPK
[8] = system: ERK1
[9] = system: FRK
[10] = system: GSK3A
[11] = system: HPK1
[12] = system: IKKa
[13] = system: JAK1
[14] = system: KSR1
[15] = system: KSR1, KSR2; assay: KiNativ kinase profiling in A375 cells; conditions: Activation Loop, SEQ ID NO 70, 1.0 μM
[16] = system: LATS2
[17] = system: LCK
[18] = system: MAP2K1
[19] = system: MAP2K5
[20] = system: MAP2K6
[21] = system: MAP3K1
[22] = system: MAP3K4
[23] = system: MARK3
[24] = system: MELK
[25] = system: MST2
[26] = system: NDR1
[27] = system: NEK3
[28] = system: NEK4
[29] = system: NEK6, NEK7; assay: KiNativ kinase profiling in A375 cells; conditions: Lys2, SEQ ID NO 122, 1.0 μM
[30] = system: p70S6K
[31] = system: PAN3
[32] = system: PCTAIRE1
[33] = system: PFTAIRE1
[34] = system: PHKG2
[35] = system: PIP5K3
[36] = system: PITSLRE; assay: KiNativ kinase profiling in A375 cells; conditions: Lys2, SEQ ID NO 152, 1.0 μM
[37] = system: PRP4
[38] = system: PRPK
[39] = system: PYK2
[40] = system: RIPK3
[41] = system: ROCK1, ROCK2; assay: KiNativ kinase profiling in A375 cells; conditions: Lys2, SEQ ID NO 163, 1.0 μM
[42] = system: RSK1 domain1, RSK2 domain1, RSK3 domain1; assay: KiNativ kinase profiling in A375 cells; conditions: Lys2, SEQ ID NO 165, 1.0 μM
[43] = system: RSK2 domain2
[44] = system: SRC
[45] = system: SRPK1
[46] = system: TAK1
[47] = system: TEC
[48] = system: ULK1
[49] = system: ULK3
[50] = system: ZC1/HGK, ZC2/TNIK, ZC3/MINK; assay: KiNativ kinase profiling in A375 cells; conditions: Lys2, SEQ ID NO 198, 1.0 μM

`CCN1CCN(Cc2ccc(NC(=O)c3ccc(C)c(Oc4cc(N)ncn4)c3)cc2C(F)(F)F)CC1` [(A-4), 3-((6-aminopyrimidin-4-yl)oxy)-N-(4-((4-ethylpiperazin-1-yl)methyl)-3-(trifluoromethyl)phenyl)-4-methylbenzamide] was tested. Which “inhibition of kinase labeling” value [1] did it give?
The value was −31.4%.

And the “inhibition of kinase labeling” value [2]?
Its value is 16.3%.

What about the “inhibition of kinase labeling” value [3] of the same molecule?
The value was 12.2%.

What about the “inhibition of kinase labeling” value [4] of the same molecule?
The value was 18.9%.

And the “inhibition of kinase labeling” value [5]?
Its value is −23.1%.

What about the “inhibition of kinase labeling” value [6] of the same molecule?
The value was −2.3%.

And the “inhibition of kinase labeling” value ([7]; ATP site peptide SEQ ID NO 37)?
Its value is −61.5%.

And the “inhibition of kinase labeling” value ([7]; ATP site peptide SEQ ID NO 38)?
The value was −64.6%.

And the “inhibition of kinase labeling” value [8]?
The value was −9.0%.

And the “inhibition of kinase labeling” value [9]?
The value was 91.1%.

What about the “inhibition of kinase labeling” value [10] of the same molecule?
Its value is 36.0%.

And the “inhibition of kinase labeling” value [11]?
The value was 68.1%.

What about the “inhibition of kinase labeling” value [12] of the same molecule?
Its value is −17.0%.

And the “inhibition of kinase labeling” value [13]?
Its value is 4.3%.

What about the “inhibition of kinase labeling” value [14] of the same molecule?
Its value is −22.0%.

What about the “inhibition of kinase labeling” value [15] of the same molecule?
The value was −10.0%.

And the “inhibition of kinase labeling” value [16]?
The value was −1.9%.

And the “inhibition of kinase labeling” value [17]?
The value was 92.3%.

And the “inhibition of kinase labeling” value [18]?
The value was 11.4%.

And the “inhibition of kinase labeling” value [19]?
Its value is 20.5%.

And the “inhibition of kinase labeling” value [20]?
The value was 0.5%.

And the “inhibition of kinase labeling” value [21]?
Its value is 26.9%.

And the “inhibition of kinase labeling” value [22]?
The value was 19.2%.

What about the “inhibition of kinase labeling” value [23] of the same molecule?
The value was −26.1%.

What about the “inhibition of kinase labeling” value [24] of the same molecule?
Its value is −19.6%.

And the “inhibition of kinase labeling” value [25]?
The value was −6.2%.

What about the “inhibition of kinase labeling” value [26] of the same molecule?
Its value is 9.3%.

And the “inhibition of kinase labeling” value [27]?
The value was 13.1%.

What about the “inhibition of kinase labeling” value [28] of the same molecule?
Its value is 1.5%.

And the “inhibition of kinase labeling” value [29]?
The value was −12.5%.

What about the “inhibition of kinase labeling” value [30] of the same molecule?
Its value is −2.3%.

What about the “inhibition of kinase labeling” value [31] of the same molecule?
Its value is 12.1%.

And the “inhibition of kinase labeling” value [32]?
The value was −3.5%.

And the “inhibition of kinase labeling” value [33]?
The value was 4.3%.

And the “inhibition of kinase labeling” value [34]?
Its value is 15.2%.

What about the “inhibition of kinase labeling” value [35] of the same molecule?
The value was 0.9%.

And the “inhibition of kinase labeling” value [36]?
The value was −10.4%.

What about the “inhibition of kinase labeling” value [37] of the same molecule?
Its value is −20.1%.

And the “inhibition of kinase labeling” value [38]?
The value was −13.7%.

And the “inhibition of kinase labeling” value [39]?
Its value is 10.9%.

What about the “inhibition of kinase labeling” value [40] of the same molecule?
The value was 32.6%.

And the “inhibition of kinase labeling” value [41]?
The value was 22.0%.

And the “inhibition of kinase labeling” value [42]?
The value was −17.7%.

And the “inhibition of kinase labeling” value [43]?
Its value is −24.1%.

What about the “inhibition of kinase labeling” value [44] of the same molecule?
The value was 76.1%.

What about the “inhibition of kinase labeling” value [45] of the same molecule?
The value was −34.1%.

And the “inhibition of kinase labeling” value [46]?
Its value is 32.0%.

What about the “inhibition of kinase labeling” value [47] of the same molecule?
The value was −12.8%.

What about the “inhibition of kinase labeling” value [48] of the same molecule?
The value was −6.0%.

And the “inhibition of kinase labeling” value [49]?
The value was −4.4%.

And the “inhibition of kinase labeling” value [50]?
The value was 19.2%.
